Assays:
[1] = test system: obese mice; conditions: cited from earlier work
[2] = test system: Guinea pig tracheal smooth muscle; experiment: Electrical field stimulated guinea pig tracheal smooth muscle contraction; conditions: inhibition of EFS-induced guinea pig tracheal smooth muscle contraction; 95% CI 0.78-0.94
Description: It is possible to assess the bronchodilating effects of sGC stimulators by using the system described below. This system allows us to determine potency, efficacy and duration of action of several sGC stimulators, as well as to assess potential side effects such as blood pressure, or heart rate changes.
Animals: Guinea pig, Dunkin Hartley, male, Full barrier-bred and certified free of specific micro-organisms on receipt 525-609 g on the experimental day, Harlan UK Ltd. Guinea pigs are housed in a group of 4 in solid-bottomed cages with Gold Flake bedding in a controlled environment (airflow, temperature and humidity). Food (FD1, Special Diet Services) and water are provided ad libitum.
On each experimental day, a guinea pig is killed by exposure to a rising concentration of CO2 and the trachea removed. […] Tissues are washed with Kreb's buffer and stimulated using the previously determined sub-maximal voltage for 1 hour to establish a stable baseline contraction prior to assessment of compound activity.
A cumulative dose response curve (DRC) to each test substance is then performed and changes in smooth muscle contraction measured. The effect of each test substance in each experiment is expressed as a percentage inhibition of the baseline contraction, normalized to the relevant vehicle controls. […]

[3] = test system: patients with BMD; conditions: single oral dose of 20 mg; cited from earlier work

O=C(O)CCCCN(CCc1cc(F)ccc1OCc1ccc(-c2ccc(C(F)(F)F)cc2)cc1)Cc1ccc(C(=O)O)cc1 [BAY 60-2770]
effect on overactive bladder [1]: ameliorates overactive bladder in obese mice

CC(C)[N+]1(C)[C@@H]2CC[C@H]1CC(OC(=O)C(CO)c1ccccc1)C2 (stereo partly drawn) [Ipratropium bromide]
IC50 [2]: 0.86 nM

CN1CC(=O)N2[C@H](c3ccc4c(c3)OCO4)c3[nH]c4ccccc4c3C[C@@H]2C1=O [tadalafil]
blood flow regulation (exercise-induced attenuation of reflex vasoconstriction) [3]: normal blood flow regulation was restored in eight of nine patients

— patent US10183021B2, “sGC stimulators” (Ironwood Pharmaceuticals, Inc., priority 2013, dated 2019)
